From article PMC8494430, “Development of a fluorogenic ADAMTS-7 substrate” (Journal of Enzyme Inhibition and Medicinal Chemistry, 2021)

Legend:
MMP-2 = molecular target: T1, MMP-2 (Homo sapiens, UniProt P08253); experiment: MMP-2 FRET peptide inhibition assay; format: biochemical; conditions: Cheng-Prusoff, read-out: Ki app MMP-2
T1 sequence (P08253 110-660): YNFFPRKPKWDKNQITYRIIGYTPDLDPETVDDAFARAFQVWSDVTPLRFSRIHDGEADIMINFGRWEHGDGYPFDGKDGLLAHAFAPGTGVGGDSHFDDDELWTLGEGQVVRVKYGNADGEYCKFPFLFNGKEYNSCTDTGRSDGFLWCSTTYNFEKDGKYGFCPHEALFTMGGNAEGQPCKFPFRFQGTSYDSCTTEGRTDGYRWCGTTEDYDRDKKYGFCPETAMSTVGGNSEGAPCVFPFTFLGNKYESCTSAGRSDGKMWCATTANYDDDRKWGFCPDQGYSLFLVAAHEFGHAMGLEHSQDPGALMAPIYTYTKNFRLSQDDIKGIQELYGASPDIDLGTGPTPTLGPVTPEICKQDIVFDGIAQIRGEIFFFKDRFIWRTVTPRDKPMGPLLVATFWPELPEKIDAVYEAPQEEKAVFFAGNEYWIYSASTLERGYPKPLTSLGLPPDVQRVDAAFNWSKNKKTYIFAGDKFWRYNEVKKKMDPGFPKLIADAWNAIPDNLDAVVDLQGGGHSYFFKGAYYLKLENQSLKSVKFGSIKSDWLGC
Text: Substrate and Km values are in micromolar.
2,3-diaminopropionyl diaminopropionic amide; Fam, 5,6-carboxyfluorescein; Mca, 7-
Enzyme Substrate [S] Km Reference

ADAMTS-4 = molecular target: T2, ADAMTS-4 (Homo sapiens, UniProt O75173); experiment: Cleavage of ATS7FP7 by ADAMTS-4 (kinetic constants); format: biochemical; conditions: cleavage of ATS7FP7 by ADAMTS-4 (10 nM), 37 °C
T2 construct: made in house
T2 sequence (O75173 213-837): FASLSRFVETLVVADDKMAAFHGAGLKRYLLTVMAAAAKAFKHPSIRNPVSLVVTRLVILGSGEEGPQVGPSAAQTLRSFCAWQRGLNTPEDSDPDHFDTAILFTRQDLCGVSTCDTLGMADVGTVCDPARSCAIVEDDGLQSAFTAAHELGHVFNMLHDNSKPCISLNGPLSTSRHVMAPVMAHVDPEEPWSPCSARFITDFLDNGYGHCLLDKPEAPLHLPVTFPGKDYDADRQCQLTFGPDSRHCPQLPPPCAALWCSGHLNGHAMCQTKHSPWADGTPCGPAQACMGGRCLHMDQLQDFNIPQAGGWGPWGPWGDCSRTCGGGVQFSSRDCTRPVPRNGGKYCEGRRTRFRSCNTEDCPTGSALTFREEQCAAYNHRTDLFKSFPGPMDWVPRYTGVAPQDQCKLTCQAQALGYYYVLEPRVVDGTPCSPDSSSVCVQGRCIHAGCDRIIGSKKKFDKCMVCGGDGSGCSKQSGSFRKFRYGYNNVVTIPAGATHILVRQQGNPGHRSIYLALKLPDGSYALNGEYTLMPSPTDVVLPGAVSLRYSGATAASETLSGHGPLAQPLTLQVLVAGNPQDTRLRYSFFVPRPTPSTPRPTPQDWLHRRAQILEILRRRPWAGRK
Protocol: All enzyme assays were conducted in TNC-B buffer (50 mM Tris- HCl, pH 7.5, 150 mM NaCl, 10 mM CaCl2, and 0.02% NaN3) at 37 °C in 384 well plates (Cat. No: 784900, Greiner Bio-One, Austria). To avoid the formation of inhibitor or peptide aggregates, the detergent Brij-35 (0.05%) was added to TNC-B[13]. For inhibition studies, stock solutions of chemical compounds were prepared in dimethyl sulfoxide (DMSO) (10 mM). These were further diluted at different concentrations in TNC-B and incubated with ADAMTS-1, ADAMTS-4, ADAMTS-5, ADAMTS-7 or ADAMTS-8 (10 nM) for 1 h at 37 °C. Blank samples were prepared using buffer only and the rate of cleavage for blank reactions was subtracted from the rates measured in the presence of enzyme. Upon addition of the indicated ADAMTS-7 FRET substrates (40 µM), the fluorescence was measured immediately using a FLUOstar Omega microplate reader (BMG Labtech, Germany) with an excitation filter wavelength of 485 nm and an emission filter wavelength of 520 nm. […]
Supplementary Figure 6: Cleavage of ATS7FP7 by members of the ADAMTS family. […] Fluorescence was detected (λex = 485 nm, λem = 520 nm) for 8 h at 37°C and reported as relative fluorescence units (RFU). […]

Ki (MMP-2)	Compound	Km (ADAMTS-4)	kcat (ADAMTS-4)
4 ± 0.3 nM	O=C(NCCC[C@@H](NS(=O)(=O)c1ccc(OCc2ccc(F)cc2Cl)cc1)C(=O)NO)c1ccccc1 [EDV33]	–	–
–	Glu-Ala-Ala-Ala-Arg↓Ala-Glu↓Ala-Ala-Ala-Lys [ATS7FP7]	9.5 ± 1.7 µM	0.116 ± 0.0060 s⁻¹
